In patent publication US11478451B1, “Macrocyclic chlorine substituted indole derivatives” (Bayer Aktiengesellschaft, priority 2017, dated 2022):
Counter-ions that a name gives are not always drawn. Like-named read-outs stand apart in the source and are kept apart here. One block for each molecule: values may come before it.

What was measured:
[1] = the molecule shown is the open-chain precursor, crosslinker bond, 11-membered ring, MeCN
SUDHL5 cells [2] = assay: Antiproliferation assay (CellTiter-Glo, 72 h), SUDHL5; type: cell-based; conditions: IC50, median; SUDHL5, 72 h; read-out: Antiproli SUDHL5 [M] (median)
Procedure, shortened: (§1)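 Treated cells sat 72 h in a humidified 37 °C incubator, outer wells unused, before CellTiter-Glo reagent and a 10 min wait preceded luminescence reading; identical measurement of a parallel day 0 plate defined time zero.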

AMO-1 cells = assay: Antiproliferation assay (CellTiter-Glo, 72 h), AMO-1; type: cell-based; conditions: IC50, median; AMO-1, 72 h; read-out: Antiproli AMO-1 [M] median
Procedure, shortened: as §1

SK-BR-3 cells = assay: Antiproliferation assay (CellTiter-Glo, 72 h), SK-BR-3; type: cell-based; conditions: IC50, median; SK-BR-3, 72 h; read-out: Antiproli SK-BR-3 [M] median
Protocol: (§2) Assessment of the Anti-Proliferative Effect of Compounds in Different Cell Lines
(§3) The impact of compounds on the proliferation of different cell lines was assessed using the CellTiter-Glo® Luminescent Cell Viability reagent from Promega (G7573).
(§4) In parallel, cells were plated in a reference (day 0) plate for time zero determination.
(§5) Rim wells were excluded. The cells were incubated for 72 h hours in a humidified incubator at 37° C. The day 0 plate was measured by adding 30 μL/well of CTG solution (CellTiter-Glo® Luminescent Cell Viability reagent, Promega G7573) to time zero wells in the reference plate followed by a 10 minutes incubation and luminescence reading at 0.1 ms. using the PHERAstar FS microplate reader (BMG Labtech).
(§6) After 72 h incubation, the treated plates were measured in the same way as the day 0 plate mentioned above.

SUDHL10 cells [3] = assay: Antiproliferation assay (CellTiter-Glo, 72 h), SUDHL10; type: cell-based; conditions: Homo sapiens, SU-DHL10, 72 h, IC50, median; SUDHL10, 72 h; read-out: Antiproli SUDHL10 [M] (median)
Protocol: as §2, §3, §4, §5, §6

SUDHL5 cells [4] = assay: Induction of caspase-3/7 activity (Caspase-Glo 3/7), SUDHL5; type: cell-based; conditions: EC50, median; SUDHL5, 3 h treatment
Procedure, shortened: (§7)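 Read-out: Caspase-Glo 3/7 signal, background-corrected against medium-only wells, taken after cells had been incubated with compounds for 3 h at 37 °C.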

MV-4-11 cells = assay: Antiproliferation assay (CellTiter-Glo, 72 h), MV-4-11; type: cell-based; conditions: IC50, median; MV-4-11, 72 h; read-out: Antiproli MV-4-11 [M] median
Protocol: as §2, §3, §4, §5, §6

SUDHL10 cells [5] = assay: Induction of cytotoxicity (CellTiter-Glo, 5 h), SUDHL10; conditions: SUDHL10, 5 h
SUDHL10 cells [6] = assay: Induction of caspase-3/7 activity (Caspase-Glo 3/7), SUDHL10; type: cell-based; conditions: EC50, median, SUDHL10, 3 h treatment
Procedure, shortened: as §7

SUDHL5 cells [7] = assay: Induction of cytotoxicity (CellTiter-Glo, 5 h), SUDHL5; conditions: read-out: Cytotox SUDHL5 [M] (median); IC50, median; SUDHL5, 5 h
MCL1 protein = MCL1 protein (Homo sapiens (Human), UniProt Q07820); assay: PIxEL: protein-protein interaction in permeabilized cells by ELISA (MCL1/biotin-BIM BH3 peptide, RKO cells); type: cell-based; conditions: IC50, median, serum free
Protocol: PIxEL: Protein-Protein Interaction in Permeabilized Cells by ELISA
Most MCL1 protein molecules are localized at the mitochondria outer membrane and sequester pro-apoptotic proteins through binding of their BCL2 homology domain 3 (BH3 domain). MEB buffer (150 mM mannitol, 10 mM HEPES pH 7.5, 50 mM KCl, 20 μM EDTA, 20 μM EGTA, 5 mM potassium succinate, 0.1% protease-free BSA (SIGMA) with low dose digitonin (0.002%) permeabilizes plasma membrane while leaves live mitochondria, where MCL1 maintains its native localization and conformation. Unlike biophysical assays (e.g. TR-FRET) that use truncated recombinant MCL1 protein, this assay uses full length endogenous MCL1 protein at mitochondria outer membrane. It measures the interaction between MCL1 protein and biotinylated BIM BH3 peptide. Compounds can compete with BIM BH3 peptide to bind to MCL1 protein.
On day 1, RKO colon cancer cell line cells were plated at 0.8 million cells/ml, 100 μl/well in 96-well flat bottom TC plates (Corning). MCL1 antibody (Santa Cruz sc-12756) were diluted at 200 fold (final concentration 1 μg/ml) in carbonate buffer (Thermo Fisher Scientific, pH 9.6), and 50 μl of diluted antibody was added to each well of high bind ELISA plates ([…]). Each plate was tapped to make sure liquid covering entire bottom of wells and incubate at 37° C. overnight.
On the second day, MCL1 antibody was washed from ELISA plate. 250 μl Odyssey® Blocking Buffer (PBS) (Li-Cor) was added to each well, incubated at room temperature for at least 1 hour, then washed once with 250 μl 1×PBST. Plates with RKO cells were gently washed once with 100 μl/well PBS, once with 100 μl/well MEB buffer without digitonin, then 100 μl of MEB buffer with 0.002% digitonin was gently added to each well. Compounds were added with HP Tecan compound dispenser in 3-fold dilution series, highest dose 30 μM, 10-dose per compound in quadruplicates. Biotin-BIM peptide (synthesized by 21st Century) was added with HP Tecan compound dispenser at 0.2 μM immediately after the addition of compounds. Plates were rocked for 1 hour at room temperature. Then MEB buffer was aspirated and 50 μl of CHAPS buffer (50 mM Tris-Cl, pH 7.4, 150 mM NaCl, 1% CHAPS, 1 mM EDTA, 1 mM EGTA, cOmplete protease inhibitors (Roche), PhosSTOP (Roche)) was added to each well. Plates were rocked for 1 hour at 4° C., then 45 μl cell lysate from each well were transferred to ELISA plates coated with MCL1 antibody. Plates were incubated overnight in the cold room with rocking.
On the third day, ELISA plates were washed once with 250 μl 1×PBST. Streptavidin-poly-HRP (Thermo Fisher Scientific) was diluted to 20 ng/ml in Odyssey blocking buffer plus 0.05% Triton-100, and 100 μl was added to each well of the ELISA plate. Plates were incubated at RT from 1 hour with rocking, then washed with 100 μL 1×PBST for 3 times. Each SuperSignal ELISA Femto Maximum Sensitivity substrate was added to a 50-ml tube and mixed, then 100 μl of mixed substrate was added to each well. Plates were shaken for 1 minute then luminescence was measured by Envision plate reader […]. Signal of each well were normalized by no-compound control and no-cell control. IC50 was calculated using Graphic Pad PRISM software.

MCL-1 = MCL-1 (Homo sapiens (Human), UniProt Q07820, K194A/K197A/R201A); assay: Protein-protein interaction assay MCL-1/Noxa BH3 peptide (MCL-1 assay), TR-FRET; type: binding; conditions: IC50, median; MCL-1/Noxa BH3 TR-FRET
Protocol: The dose-dependent inhibition by the compounds described in this invention of the interaction between MCL-1 and the BH3 domain of Noxa (both human) was determined using a steady state binding competition assay with time-resolved fluorescence energy transfer (TR-FRET) readout. […] The MBP-MCL-1 was purchased from Beryllium (Bedford, Mass., USA). The expression and purification of this protein construct has been described elsewhere (DOI:10.1371/journal.pone.0125010). The Noxa BH3-derived peptide can be obtained from e.g. Biosyntan (Berlin, Germany), 50812.1.
For that, 100-fold concentrated DMSO solutions were prepared by serial dilutions (1:3.4) of a 2 mM stock solution in a clear, 384-well microtiter plate (Greiner Bio-One, Frickenhausen, Germany). From there, 50 nl were transferred in a dark test plate (Greiner Bio-One, Frickenhausen, Germany). […] This was followed by a 10-minute incubation step at 22° C. for pre-equilibration of the putative complex between MBP-MCL-1 and the compounds.
The mixture was incubated in the dark for one hour at 22° C. and then overnight at 4° C.
The resulting data (ratio) were normalized, taking 0% inhibition as the mean value of control measurements (usually 32 data points) where all reagents were included. In this case 50 nl DMSO were used instead of compounds. […] IC50 values were determined by regression analysis based on a 4 parameter equation (minimum, maximum, IC50, Hill; Y=Max+(Min−Max)/(1+(X/IC50)^Hill) using the Screener Software (Genedata).

Chain of MCL1 protein (Q07820 whole entry): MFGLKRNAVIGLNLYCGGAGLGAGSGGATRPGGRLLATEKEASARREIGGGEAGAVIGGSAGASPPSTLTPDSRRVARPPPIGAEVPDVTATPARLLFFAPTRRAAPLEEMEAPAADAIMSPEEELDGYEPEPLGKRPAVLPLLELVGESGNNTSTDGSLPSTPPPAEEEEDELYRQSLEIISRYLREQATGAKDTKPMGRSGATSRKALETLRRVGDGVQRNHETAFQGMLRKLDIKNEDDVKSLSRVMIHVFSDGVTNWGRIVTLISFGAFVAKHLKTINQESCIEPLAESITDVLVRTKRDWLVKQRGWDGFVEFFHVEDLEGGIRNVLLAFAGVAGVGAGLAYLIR
Chain of MCL-1 (Q07820 whole entry K194A/K197A/R201A, looked up, the tested form may be a part): as the sequence (Q07820 whole entry) above, with K194A, K197A, R201A counted along it

Compound: CCOC(=O)c1[nH]c2c(-c3c(CO)nn(C)c3CC)c(Cl)ccc2c1CCCOc1cccc2cc(F)ccc12
ring closure, isolated yield ([1]; (Z)-1,4-dichlorobut-2-ene/Cs2CO3/NaI, 77.0 mM, […]): 82%

IC50 (SUDHL5 cells [2]): 3.7e-07 M
IC50 (SK-BR-3 cells): 1.08e-06 M
IC50 (SUDHL10 cells [3]): 2.7e-07 M
EC50 (SUDHL5 cells [4]): 0.27 µM
IC50 (MV-4-11 cells): 8.23e-07 M
EC50 (SUDHL10 cells [6]): 0.33 µM
Compound: CCc1nn(CCN2CCOCC2)c2c1-c1c(Cl)ccc3c(CCCOc4cccc5ccccc45)c(C(=O)O)n(c13)CCCCOC2 (single isomer, unassigned; enantiomer 1) [Example 9, 4-chloro-3-ethyl-1-[2-(morpholin-4-yl)ethyl]-7-[3-(naphthalen-1-yloxy)propyl]-1,10,11,12,13,15-hexahydropyrazolo[4′,3′:9,10][1,6]oxazacycloundecino[8,7,6-hi]indole-8-carboxylic acid-N-ethylethanamine salt (Enantiomer 1)]
IC50 (AMO-1 cells): 8.7e-07 M
IC50 (SUDHL10 cells [5]; read-out: Cytotox SUDHL10 [M] (median), IC50, median): 3.4e-07 M
IC50 (SUDHL5 cells [7]): 2.9e-07 M

Compound: Cc1c2c(nn1C)CN(C)CCCCn1c(C(=O)O)c(CCCOc3cccc4cc(F)ccc34)c3ccc(Cl)c-2c31 (single isomer, unassigned; enantiomer 2) [Example 32, (−)-4-chloro-7-{3-[(6-fluoronaphthalen-1-yl)oxy]propyl}-2,3,14-trimethyl-10,11,12,13,14,15-hexahydro-2H-pyrazolo[3′,4′:8,9][1,6]diazacycloundecino[10,11,1-hi]indole-8-carboxylic acid-N-ethylethanamine salt (Enantiomer 2)]
IC50 (SUDHL5 cells [2]): 6e-06 M
IC50 (MCL1 protein): 19.1 µM
IC50 (MV-4-11 cells): 1.4e-05 M
IC50 (MCL-1): 0.026 µM
IC50 (SUDHL5 cells [7]): 9.3e-06 M

Compound: CCOC(=O)c1[nH]c2c(-c3c(CC)nn(C)c3CO)c(Cl)ccc2c1CCCOc1cccc2cc(F)ccc12
ring closure, isolated yield ([1]; (Z)-1,4-dichlorobut-2-ene/Cs2CO3/NaI, […]): 84%

IC50 (SUDHL5 cells [2]): 4.7e-07 M
IC50 (SK-BR-3 cells): 3e-06 M
EC50 (SUDHL5 cells [4]): 0.29 µM
IC50 (MV-4-11 cells): 1.1e-06 M
EC50 (SUDHL10 cells [6]; Homo sapiens, SU-DHL10, 3 h): 0.36 µM
Compound: CCc1nn(CCN2CCOCC2)c2c1-c1c(Cl)ccc3c(CCCOc4cccc5ccccc45)c(C(=O)O)n(c13)CCCCOC2 (racemic) [Example 8, (rac)-4-chloro-3-ethyl-1-[2-(morpholin-4-yl)ethyl]-7-[3-(naphthalen-1-yloxy)propyl]-1,10,11,12,13,15-hexahydropyrazolo[4′,3′:9,10][1,6]oxazacycloundecino[8,7,6-hi]indole-8-carboxylic acid]
IC50 (SUDHL10 cells [5]; Homo sapiens, SU-DHL10, 5 h, read-out: Cytotox SUDHL10 [M] (median), IC50, median): 4.5e-07 M
IC50 (SUDHL5 cells [7]): 3.5e-07 M

Compound: CCOC(=O)c1[nH]c2c(-c3c(CC)nn(CCN4CCOCC4)c3CNC)c(Cl)ccc2c1CCCOc1cccc2ccccc12
ring closure, isolated yield ([1]; (Z)-1,4-dichlorobut-2-ene/Cs2CO3, […]): 45%

Compound: CCOC(=O)c1[nH]c2c(-c3c(CO)nn(C)c3C)c(Cl)ccc2c1CCCOc1cccc2ccccc12
ring closure, isolated yield ([1]; (Z)-1,4-dichlorobut-2-ene/Cs2CO3/NaI, […], 70.0 °C): 71%

Compound: CCOC(=O)c1[nH]c2c(-c3c(CO)nn(CCCO[Si](C)(C)C(C)(C)C)c3C)c(Cl)ccc2c1CCCOc1cccc2ccccc12
ring closure, isolated yield ([1]; (Z)-1,4-dichlorobut-2-ene/Cs2CO3/NaI, 31.9 mM, 70.0 °C): 68%
